# Test results taken from US6403606B1, “Thienopyridine derivatives and their use” (Takeda Chemical Industries Ltd., priority 1996, dated 2002).
row,SMILES,melting point [°C]
1,"CCOC(=O)c1c(CN2C(=O)CN(C)C2=O)nc2sc3c(c2c1-c1ccc(OC)c(OC)c1)CCN(C(=O)c1ccccc1)C3 [Example 52A, ethyl 7-benzoyl-4-(3,4-dimethoxyphenyl)-2-(1-methylhydantoin-3-ylmethyl)-5,6,7,8-tetrahydrothieno[2,3-b:5,4-c′]dipyridine-3-carboxylate]",185 to 187
2,"CCOC(=O)c1c(Cn2cncn2)nc2sc3c(c2c1-c1ccc(OC)c(OC)c1)CCN(C(=O)c1ccccc1)C3 [Example 20A, ethyl 7-benzoyl-4-(3,4-dimethoxyphenyl)-5,6,7,8-tetrahydro-2-(1,2,4-triazol-1-ylmethyl)thieno[2,3-b:5,4-c′]dipyridine-3-carboxylate]",193 to 194
3,"COc1ccc(-c2c(Cl)c(CNC(=O)Cn3cncn3)nc3sc4c(c23)CCN(Cc2ccccc2)C4)cc1OC [Example 20B, 7-benzyl-3-chloro-4-(3,4-dimethoxyphenyl)-5,6,7,8-tetrahydro-2-(1,2,4-triazol-1-ylacetylaminomethyl)thieno[2,3-b:5,4-c′]dipyridine]",101 to 102
4,"CCOC(=O)c1c(CN(CC)CC)nc2sc3c(c2c1-c1ccc(OC)c(OC)c1)CN(C(=O)c1ccc(Cl)cc1)CC3 [Example 53A, ethyl 6-(4-chlorobenzoyl)-2-diethylaminomethyl-4-(3,4-dimethoxyphenyl)-5,6,7,8-tetrahydrothieno[2,3-b:4,5-c′]dipyridine-3-carboxylate]",91 to 92
5,"CCOC(=O)c1c(CN(C)O)nc2sc3c(c2c1-c1ccc(OC)c(OC)c1)CCN(C(=O)c1ccccc1)C3 [Example 25A, ethyl 7-benzoyl-4-(3,4-dimethoxyphenyl)-2-(N-hydroxy-N-methylaminomethyl)-5,6,7,8-tetrahydrothieno[2,3-b:5,4-c′]dipyridine-3-carboxylate]",129 to 130
6,"CCNCc1nc2sc3c(c2c(-c2ccc(OC)c(OC)c2)c1Cl)CCN(Cc1ccccc1)C3 [Example 1B, 7-benzyl-3-chloro-4-(3,4,-dimethoxyphenyl)-2-ethylaminomethyl-5,6,7,8-tetrahydrothieno[2,3-b:5,4-c′]dipyridine]",135 to 136
7,"CCOC(=O)c1c(CN(CC)CC)nc2sc3ccncc3c2c1-c1ccc(OC)c(OC)c1 [Example 55A, ethyl 2-diethylaminomethyl-4-(3,4-dimethoxyphenyl)thieno[2,3-b:4,5-c′]dipyridine-3-carboxylate]",141 to 142
8,"CCOC(=O)c1c(Cn2cncn2)nc2sc3cnccc3c2c1-c1ccc(OC)c(OC)c1 [Example 47A, ethyl 4-(3,4-dimethoxyphenyl)-2-(1,2,4-triazol-1-ylmethyl)thieno[2,3-b:5,4-c′]dipyridine-3-carboxylate]",172 to 174
9,"CCOC(=O)c1c(CN(CC)CC)nc2sc3c(c2c1-c1ccc(OC)c(OC)c1)CCN(S(=O)(=O)c1ccccc1)C3 [Example 9A, ethyl 7-benzenesulfonyl-2-(N,N-diethylaminomethyl)-4-(3,4-dimethoxyphenyl)-5,6,7,8-tetrahydrothieno[2,3-b:5,4-c′]dipyridine-3-carboxylate]",161 to 162
10,"CCOC(=O)c1c2c(cn1Cn1cncn1)C1=C(NC(C(=O)OCc3ccccc3)CC1)[SH]2c1ccc(OC)c(OC)c1 (stereo not shown) [Example 17A, ethyl 2-benzyloxycarbonyl-8-(3,4-dimethoxyphenyl)-2,3-dihydro-6-(1,2,4-triazol-1-ylmethyl)-1H-pyrrolo[3′,4′:4,5]thieno[2,3-b]pyridine-7-carboxylate]",166 to 167
11,CCOC(=O)c1c(CN(CC)CC)nc2sc3c(c2c1-c1ccc(CC)cc1)CCN(C(=O)Nc1ccccc1)C3 [Example 36A],112 to 114
12,"CCOC(=O)c1c(Cn2cncn2)nc2sc3c(c2c1-c1ccc(OC)c(OC)c1)CNCC3 [Example 63A, ethyl 4-(3,4-dimethoxyphenyl)-5,6,7,8-tetrahydro-2-(1,2,4-triazol-1-ylmethyl)thieno[2,3-b:4,5-c′]dipyridine-3-carboxylate]",180 to 181
13,"CCOC(=O)c1c(CCc2nccn2C)nc2sc3c(c2c1-c1ccc(OC)c(OC)c1)CCN(C(=O)c1ccccc1)C3 [Example 23A, ethyl 7-benzoyl-4-(3,4-dimethoxyphenyl)-5,6,7,8-tetrahydro-2-[2-(1-methylimidazol-2-yl)ethyl]thieno[2,3-b:5,4-c′]dipyridine-3-carboxylate]",170 to 217
14,"CCOC(=O)c1c(CCCCn2cncn2)nc2sc3cnccc3c2c1-c1ccc(OC)c(OC)c1 [Example 30A, ethyl 4-(3,4-dimethoxyphenyl)-2-[4-(1,2,4-triazol-1-yl)butyl]thieno[2,3-b:5,4-c′]dipyridine-3-carboxylate]",118 to 119
15,"CCOC(=O)c1c(Cn2cncn2)nc2sc3c(c2c1-c1ccc(OC)c(OC)c1)CCNC3 [Example 21A, ethyl 4-(3,4-dimethoxyphenyl)-5,6,7,8-tetrahydro-2-(1,2,4-triazol-1-ylmethyl)thieno[2,3-b:5,4-c′]dipyridine-3-carboxylate]",164 to 165
16,"COc1ccc(-c2c(Cl)c(CNC(C)(C)C)nc3sc4c(c23)CCN(Cc2ccccc2)C4)cc1OC [Example 3B, 7-benzyl-2-(tert-butylaminomethyl)-3-chloro-4-(3,4-dimethoxyphenyl)-5,6,7,8-tetrahydrothieno[2,3-b:5,4-c′]dipyridine]",134 to 135

row,SMILES,melting point [°C]
1,"COc1ccc(-c2c(Cl)c(CNC(=O)c3cccnc3)nc3sc4c(c23)CCN(Cc2ccccc2)C4)cc1OC [Example 22B, 7-benzyl-3-chloro-4-(3,4-dimethoxyphenyl)-2-(nicotinoylaminomethyl)-5,6,7,8-tetrahydrothieno[2,3-b:5,4-c′]dipyridine]",124 to 125
2,"CCOC(=O)c1c(CN(CC)CC)nc2sc3c(c2c1-c1ccc(Cl)cc1)CCNC3 [Example 6A, ethyl 4-(4-chlorophenyl)-2-(N,N-diethylaminomethyl)-5,6,7,8-tetrahydrothieno[2,3-b:5,4-c′]dipyridine-3-carboxylate]",104 to 106
3,"CCC(C)(C)NCc1nc2sc3c(c2c(-c2ccc(OC)c(OC)c2)c1Cl)CCN(Cc1ccccc1)C3 [Example 4B, 2-(tert-amylaminomethyl)-7-benzyl-3-chloro-4-(3,4-dimethoxyphenyl)-5,6,7,8-tetrahydrothieno[2,3-b:5,4-c′]dipyridine]",128 to 129
4,"CCOC(=O)c1c(Cn2cncn2)nc2sc3ncccc3c2c1-c1ccc(OC)c(OC)c1 [Example 65A, ethyl 4-(3,4-dimethoxyphenyl)-2-(1,2,4-triazol-1-ylmethyl)thieno[2,3-b:5,4-b′]dipyridine-3-carboxylate]",180 to 182
5,"COc1cc(-c2c(Cl)c(CNC(C)(C)C)nc3sc4c(c23)CCNC4)ccc1OC(C)C [Example 11B, 2-(tert-butylaminomethyl)-3-chloro-4-(4-isopropoxy-3-methoxyphenyl)-5,6,7,8-tetrahydrothieno[2,3-b:5,4-c′]dipyridine]",157 to 158
6,"CCOC(=O)c1c(CCCn2cncn2)nc2sc3cnccc3c2c1-c1ccc(OC)c(OC)c1 [Example 29A, ethyl 4-(3,4-dimethoxyphenyl)-2-[3-(1,2,4-triazol-1-yl)propyl]thieno[2,3-b:5,4-c′]dipyridine-3-carboxylate]",127 to 129
7,"CCOC(=O)c1c2c(cn1CN(CC)CC)C1=C(NC(C(C)=O)CC1)[SH]2c1ccc(OC)c(OC)c1 (stereo not shown) [Example 32A, ethyl 2-acetyl-8-(3,4-dimethoxyphenyl)-6-diethylaminomethyl-2,3-dihydro-1H-pyrrolo[3′,4′:4,5]thieno[2,3-b]pyridine-7-carboxylate]",123 to 124
8,"COc1ccc(-c2c(Cl)c(Cn3cncn3)nc3sc4c(c23)CCN(Cc2ccccc2)C4)cc1OC [Example 26B, 7-benzyl-3-chloro-4-(3,4-dimethoxyphenyl)-5,6,7,8-tetrahydro-2-(1,2,4-triazol-1-ylmethyl)thieno[2,3-b:5,4-c′]dipyridine]",165 to 166
9,"CCOC(=O)c1c(CN(CC)CC)nc2sc3ncccc3c2c1-c1ccc(OC)c(OC)c1 [Example 64A, ethyl 2-diethylaminomethyl-4-(3,4-dimethoxyphenyl)thieno[2,3-b:5,4-b′]dipyridine-3-carboxylate]",156 to 157
10,"COc1ccc(-c2c(Cl)c(CN3CCN(C(C)=O)CC3)nc3sc4c(c23)CCN(Cc2ccccc2)C4)cc1OC [Example 14B, 2-(4-acetylpiperazin-1-ylmethyl)-7-benzyl-3-chloro-4-(3,4-dimethoxyphenyl)-5,6,7,8-tetrahydrothieno[2,3-b:5,4-c′]dipyridine]",183 to 184
11,"COc1ccc(-c2c(Cl)c(COc3ccccn3)nc3sc4c(c23)CCN(Cc2ccccc2)C4)cc1OC [Example 6B, 7-benzyl-3-chloro-4-(3,4-dimethoxyphenyl)-2-(2-pyridyloxymethyl)-5,6,7,8-tetrahydrothieno[2,3-b:5,4-c′]dipyridine]",165 to 167
12,"CCOC(=O)c1c(CCc2c[nH]nn2)nc2sc3c(c2c1-c1ccc(OC)c(OC)c1)CCN(C(=O)c1ccccc1)C3 [Example 24A, ethyl 7-benzoyl-4-(3,4-dimethoxyphenyl)-5,6,7,8-tetrahydro-2-[2-(1,2,3-triazol-4-yl)ethyl]thieno[2,3-b:5,4-c′]dipyridine-3-carboxylate]",184 to 185
13,"COc1ccc(-c2c(Cl)c(CNS(=O)(=O)c3ccccc3)nc3sc4c(c23)CCN(Cc2ccccc2)C4)cc1OC [Example 19B, 7-benzyl-3-chloro-4-(3,4-dimethoxyphenyl)-2-phenylsulfonylaminomethyl-5,6,7,8-tetrahydrothieno[2,3-b:5,4-c′]dipyridine]",153 to 154
14,"COc1ccc(-c2c(Cl)c(CNC(C)(C)C)nc3sc4c(c23)CCN(C(=O)c2ccccc2)C4)cc1OC [Example 8B, 7-benzoyl-2-(tert-butylaminomethyl)-3-chloro-4-(3,4-dimethoxyphenyl)-5,6,7,8-tetrahydrothieno[2,3-b:5,4-c′]dipyridine]",204 to 205
15,"COc1ccc(-c2c(Cl)c(CN3CCCC3=O)nc3sc4cnccc4c23)cc1OC [Example 36B, 3-chloro-4-(3,4-dimethoxyphenyl)-2-(2-oxopyrrolidin-1-ylmethyl)thieno[2,3-b:5,4-c′]dipyridine]",228 to 230
